Results on three compounds are retold here after publication PMC3914206.

Holding throughout (format): binding
What all share (conditions): Compound Concentration 10 µM

Test [1] addresses T1, panel of 442 kinases (Homo sapiens, UniProt Q9Y6M4).
T1 construct: purchased KINOMEscan
An excerpt: (§1) We assessed the selectivity of members of this scaffold using the KINOMEscan methodology across a near comprehensive panel of 442 kinases [[18,27]].

In test [2] the target is T2, panel of 442 kinases (Homo sapiens, UniProt Q7KZI7).
T2 construct: purchased KINOMEscan
From the text: as §1

The target in test [3] is T3, panel of 442 kinases (Homo sapiens, UniProt P21709).
T3 construct: purchased KINOMEscan
T3 sequence (P21709 26-976): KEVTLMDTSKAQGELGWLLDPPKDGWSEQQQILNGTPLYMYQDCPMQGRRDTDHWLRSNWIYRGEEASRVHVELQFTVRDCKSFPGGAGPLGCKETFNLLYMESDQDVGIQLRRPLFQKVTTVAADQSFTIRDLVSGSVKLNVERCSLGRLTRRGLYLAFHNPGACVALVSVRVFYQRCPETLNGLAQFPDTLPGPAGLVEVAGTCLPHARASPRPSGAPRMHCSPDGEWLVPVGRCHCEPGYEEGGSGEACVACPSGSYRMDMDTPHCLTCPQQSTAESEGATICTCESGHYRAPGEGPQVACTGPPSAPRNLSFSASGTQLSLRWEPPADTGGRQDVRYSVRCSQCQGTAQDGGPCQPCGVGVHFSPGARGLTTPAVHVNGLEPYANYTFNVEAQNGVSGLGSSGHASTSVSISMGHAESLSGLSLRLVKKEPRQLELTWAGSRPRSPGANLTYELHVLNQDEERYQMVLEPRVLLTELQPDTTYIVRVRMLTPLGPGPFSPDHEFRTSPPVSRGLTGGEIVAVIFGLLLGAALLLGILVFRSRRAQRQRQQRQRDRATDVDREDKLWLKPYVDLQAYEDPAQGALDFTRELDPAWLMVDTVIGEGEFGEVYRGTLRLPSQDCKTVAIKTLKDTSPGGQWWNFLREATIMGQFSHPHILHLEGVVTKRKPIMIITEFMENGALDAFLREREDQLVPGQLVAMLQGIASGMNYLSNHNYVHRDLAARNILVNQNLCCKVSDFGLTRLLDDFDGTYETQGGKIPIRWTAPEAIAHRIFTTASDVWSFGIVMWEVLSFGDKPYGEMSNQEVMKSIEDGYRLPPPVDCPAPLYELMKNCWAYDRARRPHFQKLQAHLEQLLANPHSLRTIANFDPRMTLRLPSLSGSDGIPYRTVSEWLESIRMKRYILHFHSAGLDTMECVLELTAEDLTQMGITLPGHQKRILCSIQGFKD
From the text: as §1

T2 sequence (Q7KZI7 whole entry): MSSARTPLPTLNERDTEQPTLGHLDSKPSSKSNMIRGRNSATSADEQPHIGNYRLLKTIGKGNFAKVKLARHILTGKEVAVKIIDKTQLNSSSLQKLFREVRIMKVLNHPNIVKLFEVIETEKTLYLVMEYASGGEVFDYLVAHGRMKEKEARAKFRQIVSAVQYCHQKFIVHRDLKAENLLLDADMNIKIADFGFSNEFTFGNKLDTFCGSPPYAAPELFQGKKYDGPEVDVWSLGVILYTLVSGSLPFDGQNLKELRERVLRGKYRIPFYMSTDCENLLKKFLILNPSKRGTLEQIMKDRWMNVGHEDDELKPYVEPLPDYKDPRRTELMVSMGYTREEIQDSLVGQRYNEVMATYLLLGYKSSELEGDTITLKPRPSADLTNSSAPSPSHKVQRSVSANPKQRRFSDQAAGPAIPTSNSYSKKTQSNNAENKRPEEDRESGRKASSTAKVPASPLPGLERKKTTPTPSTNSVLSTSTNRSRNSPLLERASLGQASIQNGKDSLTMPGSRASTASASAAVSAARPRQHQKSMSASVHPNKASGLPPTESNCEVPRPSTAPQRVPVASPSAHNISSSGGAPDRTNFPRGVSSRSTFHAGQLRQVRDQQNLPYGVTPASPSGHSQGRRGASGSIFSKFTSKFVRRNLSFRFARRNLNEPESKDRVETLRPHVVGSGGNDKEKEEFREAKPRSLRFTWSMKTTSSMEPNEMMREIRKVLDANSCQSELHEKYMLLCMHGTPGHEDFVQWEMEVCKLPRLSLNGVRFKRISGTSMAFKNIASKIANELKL
T1 sequence (Q9Y6M4 whole entry): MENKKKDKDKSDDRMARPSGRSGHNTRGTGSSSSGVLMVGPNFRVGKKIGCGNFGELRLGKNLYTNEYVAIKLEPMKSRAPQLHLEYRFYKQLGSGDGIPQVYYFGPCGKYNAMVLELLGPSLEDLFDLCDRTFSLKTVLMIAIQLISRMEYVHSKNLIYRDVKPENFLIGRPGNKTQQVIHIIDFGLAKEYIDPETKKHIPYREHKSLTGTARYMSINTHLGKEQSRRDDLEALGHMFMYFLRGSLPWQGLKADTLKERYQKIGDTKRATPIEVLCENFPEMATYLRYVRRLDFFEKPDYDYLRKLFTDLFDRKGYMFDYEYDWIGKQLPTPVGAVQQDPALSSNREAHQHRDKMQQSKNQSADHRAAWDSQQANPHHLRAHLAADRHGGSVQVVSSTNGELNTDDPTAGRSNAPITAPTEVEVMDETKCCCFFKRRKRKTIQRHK

Regarding `CCOc1cc(C(=O)N2CCC(N3CCN(C)CC3)CC2)ccc1Nc1ncc2c(n1)N(C1CCCC1)c1ccccc1C(=O)N2C` [Compound 26], the “KINOMEscan: CSNK1G3” value on panel of 442 kinases [1] came out at 91. Further, the “KINOMEscan: MARK2” value at panel of 442 kinases [2] was determined as 96. Moreover, the “KINOMEscan: EPHA1” value at panel of 442 kinases [3] is 98.

On to `COc1cc(C(=O)N2CCC(N3CCN(C)CC3)CC2)ccc1Nc1ncc2c(n1)N(C)c1ccccc1C(=O)N2C` [15 (LRRK2-IN-1)], for which the “KINOMEscan: CSNK1G3” value at panel of 442 kinases [1] was 93. Further, the “KINOMEscan: MARK2” value at panel of 442 kinases [2] is listed as 100. Moreover, the “KINOMEscan: EPHA1” value on panel of 442 kinases [3] was determined as 100.

For `COc1cc(C(=O)N2CCC(N3CCN(C)CC3)CC2)ccc1Nc1ncc2c(n1)N(C1CCCC1)c1ccccc1C(=O)N2C` [Compound 25, 11-cyclopentyl-2-((2-methoxy-4-(4-(4-methylpiperazin-1-yl)piperidine-1-carbonyl)phenyl)amino)-5-methyl-5H-benzo[e]pyrimido[5,4-b][1,4]diazepin-6(11H)-one], on panel of 442 kinases [1], the “KINOMEscan: CSNK1G3” value is 96. In addition, the “KINOMEscan: MARK2” value at panel of 442 kinases [2] is 98. Moreover, at panel of 442 kinases [3], the “KINOMEscan: EPHA1” value amounted to 100.
